Where no end group is shown, it is not given here.
Assays:
[1] = test system: MDA-MB-435 tumor-bearing mice; assay: Ex vivo biodistribution imaging of excised tumors and organs; format: in vivo; conditions: 24 hrs post-injection, without inhibitor
MDA-MB-435 tumor = assay: In vivo NIR fluorescence imaging of MT1-MMP-positive tumor-bearing mice
MT1-MMP (MMP-14) = MT1-MMP (MMP-14) (Homo sapiens, UniProt P50281); assay: Fluorescence activation of MT-P by activated MT1-MMP; format: biochemical; conditions: MT1-MMP 0, 4, 20 and 40 nM, 60 min, spectrofluorimetry
MT1-MMP = conditions: cited from earlier work

Row | Substance | biodistribution of activated fluorescence [1] | onset of activation in tumor (MDA-MB-435 tumor; 5 nmol i.v., MDA-MB-435 tumor-bearing mice) | fluorescent signal in the tumor at 48 hrs post-injection (MDA-MB-435 tumor; 48 hrs post-injection) | activation of NIR fluorescent signals over the probe without MT1-MMP (MT1-MMP (MMP-14)) | specificity constant (kcat/Km) (MT1-MMP)
1 | GRIGFLRTAKGG [MT-P] | activated predominantly in the tumor and liver over other organs | less than 1 hr | not detectable | up to 10 fold | –
2 | RIGFLR | – | – | – | – | 777,200 M^−1s^−1
